The source of these data is patent US12428394B2, “2,4-disubstituted pyrimidine derivative, preparation method therefor and use thereof” (CHENGDU ZENITAR BIOMEDICAL TECHNOLOGY CO., LTD., priority 2019, dated 2025).

For one assay, the target named is T1, FLT3 (Homo sapiens, UniProt P36888).
T1 construct: purchased Eurofins
T1 sequence (P36888 27-993): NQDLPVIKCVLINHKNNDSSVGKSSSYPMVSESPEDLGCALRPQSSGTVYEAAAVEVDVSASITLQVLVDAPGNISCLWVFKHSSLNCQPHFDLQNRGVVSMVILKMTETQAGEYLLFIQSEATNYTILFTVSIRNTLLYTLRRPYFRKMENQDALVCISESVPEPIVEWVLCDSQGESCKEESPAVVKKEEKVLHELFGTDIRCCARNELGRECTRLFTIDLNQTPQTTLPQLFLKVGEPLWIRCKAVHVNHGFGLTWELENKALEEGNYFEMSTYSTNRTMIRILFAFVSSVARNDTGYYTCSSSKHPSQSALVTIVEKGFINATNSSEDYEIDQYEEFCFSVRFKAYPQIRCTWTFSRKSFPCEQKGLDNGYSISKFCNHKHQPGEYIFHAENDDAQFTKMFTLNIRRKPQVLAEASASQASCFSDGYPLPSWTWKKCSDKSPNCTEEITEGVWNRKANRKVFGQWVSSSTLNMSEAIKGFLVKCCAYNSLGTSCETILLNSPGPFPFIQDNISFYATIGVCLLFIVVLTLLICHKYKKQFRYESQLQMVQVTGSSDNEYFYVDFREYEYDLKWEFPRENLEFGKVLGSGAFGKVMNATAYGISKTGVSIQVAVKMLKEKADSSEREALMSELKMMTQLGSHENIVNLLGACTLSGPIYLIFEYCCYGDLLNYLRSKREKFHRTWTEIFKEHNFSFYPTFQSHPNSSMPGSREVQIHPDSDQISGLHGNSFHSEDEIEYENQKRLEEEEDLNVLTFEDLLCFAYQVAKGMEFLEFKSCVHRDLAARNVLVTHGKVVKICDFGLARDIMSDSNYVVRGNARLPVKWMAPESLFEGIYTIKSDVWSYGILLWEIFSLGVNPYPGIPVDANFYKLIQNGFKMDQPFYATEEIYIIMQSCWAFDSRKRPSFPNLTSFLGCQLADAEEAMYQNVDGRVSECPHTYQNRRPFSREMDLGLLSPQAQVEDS
Kind of assay: In vitro kinase activity experiment, FLT3. The format is biochemical. The settings on record: for inhibition at 0.5 µM: 40 min, inhibition rate of enzyme at 500 nM, measured by Eurofins, read-out: Kinase activity @ 500 nM (%) FLT3. In outline: (§1)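 Radiometric filter-binding assay: kinase, its substrate and compound in 8 mM MOPS pH 7.0, 0.2 mM EDTA, 10 mM MnCl2, with 10 mM magnesium acetate and γ33P-ATP; MgATP started the reaction, 40 min at room temperature. Stopped with 3% phosphate, spotted on Filtermat A, washed, scintillation counted.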

The target in the next assay is T2, JAK3 (Homo sapiens, UniProt P52333).
T2 construct: purchased Eurofins
T2 sequence (P52333 1-1124): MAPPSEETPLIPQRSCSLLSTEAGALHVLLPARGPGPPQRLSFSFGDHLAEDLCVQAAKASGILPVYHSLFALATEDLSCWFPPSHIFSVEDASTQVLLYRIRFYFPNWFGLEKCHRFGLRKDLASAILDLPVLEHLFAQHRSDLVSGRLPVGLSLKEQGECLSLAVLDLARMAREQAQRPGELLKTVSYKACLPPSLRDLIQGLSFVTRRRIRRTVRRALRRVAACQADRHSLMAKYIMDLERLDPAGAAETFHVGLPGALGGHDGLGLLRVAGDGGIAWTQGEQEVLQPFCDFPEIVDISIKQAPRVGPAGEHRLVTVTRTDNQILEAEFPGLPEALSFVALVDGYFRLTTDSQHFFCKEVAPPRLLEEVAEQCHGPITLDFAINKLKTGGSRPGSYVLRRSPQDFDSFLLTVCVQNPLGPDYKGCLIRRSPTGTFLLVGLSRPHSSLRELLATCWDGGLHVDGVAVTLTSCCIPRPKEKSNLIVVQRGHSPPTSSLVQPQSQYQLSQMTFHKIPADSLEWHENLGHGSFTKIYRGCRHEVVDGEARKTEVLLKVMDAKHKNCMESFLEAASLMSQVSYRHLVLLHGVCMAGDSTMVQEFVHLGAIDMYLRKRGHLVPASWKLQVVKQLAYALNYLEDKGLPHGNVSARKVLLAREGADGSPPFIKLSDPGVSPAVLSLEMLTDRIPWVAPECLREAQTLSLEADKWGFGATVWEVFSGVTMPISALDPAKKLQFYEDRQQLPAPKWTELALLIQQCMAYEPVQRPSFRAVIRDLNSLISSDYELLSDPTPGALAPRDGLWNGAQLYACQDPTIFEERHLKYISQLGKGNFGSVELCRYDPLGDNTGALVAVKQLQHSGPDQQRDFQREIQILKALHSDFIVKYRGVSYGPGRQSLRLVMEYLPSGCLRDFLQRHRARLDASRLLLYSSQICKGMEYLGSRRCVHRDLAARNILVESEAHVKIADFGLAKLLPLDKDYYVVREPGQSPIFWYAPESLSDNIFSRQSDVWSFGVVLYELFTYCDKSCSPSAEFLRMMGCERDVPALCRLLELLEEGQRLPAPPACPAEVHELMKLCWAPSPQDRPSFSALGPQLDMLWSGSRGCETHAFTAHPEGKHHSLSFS
Kind of assay: In vitro kinase activity experiment, JAK3. The format is biochemical. The procedure:
(§2) Buffer solution ([…], pH 7.0, 0.2 mm EDTA, 10 mM mncl2), kinase to be tested, substrate of kinase to be tested, 10 mM magnesium acetate and γ33P-ATP solution, and compounds with different concentrations were added to a reaction tube in turn, then MgATP was added to initiate the enzyme reaction process, and incubated at room temperature for 40 min. Then, the reaction was terminated with 5 μl of […], and 10 μl of the reaction solution was titrated onto the Filtermat A membrane, washed with 75 mM phosphate solution for three times, each time for 5 min., and then washed with methanol once. Finally, the Filtermat A membrane was dried and the scintillation count was carried out.

In a further assay the target is T3, JAK1 (Homo sapiens, UniProt P23458).
T3 construct: purchased Eurofins
Kind of assay: In vitro kinase activity experiment, JAK1. The format is biochemical. The method, then: as §2

Assay [1] concerns MOLM-13 cells (FLT3-ITD-/+). Kind of assay: Inhibition of cell proliferation by MTT experiment, MOLM-13. The format is cell-based, human. The settings on record: Homo sapiens, MOLM-13; MTT, 72 h; read-out: IC50 value on cell proliferation inhibition, MOLM-13 FLT3-ITD-/+. In outline:
(§3)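 MTT assay in MV4-11, MOLM-13 (FLT3-ITD) and SET-2 (JAK2 V617F) cells at 10,000–15,000 cells/well in IMDM with 10% FBS. Cells are exposed to compound for 72 h at 37 °C, then to MTT for 1–3 h. IC50 is fitted from inhibition rates across concentrations.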

The target of the next assay is T4, JAK2 (Homo sapiens, UniProt O60674).
T4 construct: purchased Eurofins
Put plainly: In vitro kinase activity experiment, JAK2. The settings on record: for Kinase activity @ 500 nM (%) JAK2: inhibition rate of enzyme at 500 nM, measured by Eurofins. The format is biochemical. In outline:
as §1

Assay [2] concerns MV4-11 cells (FLT3-ITD+/+). Kind of assay: Inhibition of cell proliferation by MTT experiment, MV4-11. The format is cell-based, human. The settings on record: Homo sapiens, MV4-11; MTT, 72 h; read-out: IC50 value on cell proliferation inhibition, MV4-11 FLT3-ITD+/+. In outline:
as §3

The subject of another assay is SET-2 cells (JAK2 V617F). Put plainly: Inhibition of cell proliferation by MTT experiment, SET-2. The format is cell-based. The settings on record: Homo sapiens, SET-2; MTT, 72 h; read-out: IC50 value on cell proliferation inhibition, SET-2 (V617F). In short, it runs like this:
as §3

Assay [3] relates to Ba/F3-EpoR-JAK2V617F cells. Put plainly: Ba/F3-EpoR-JAK2V617F-driven malignant tumor mouse model. The format is in vivo, Babl/c-nude mice. The settings on record: 30 mg/Kg, oral twice a day. The procedure: Babl/c-nude mice (Beijing Huafukang Biotechnology Co., Ltd.) were received and acclimated to the environment until these mice were normalized in diet and activity, and the modeling began. Ba/F3-EpoR-JAK2V617F cells (State Key Laboratory of Biotherapy, Sichuan University) were routinely incubated and grew to 80% fusion degree. Then the cells were centrifuged at 1000 rpm for 3 min., collected, resuspended by PBS and counted by a cell counter; while the survival rate of the cells was calculated. Only when the proportion of living cells exceeds 90%, can the cells be used in the experiment, with the cell concentration adjusted to 1×10^7 cells/mL. After the cells were collected, the cell suspension was pre-cooled on ice. Each mouse was inoculated as per 1.0×10^6, and batch induction modeling was carried out.

The test system of the next assay is JAK2V617F. Kind of assay: JAK2V617F-induced myelofibrosis mouse model. The format is in vivo, BALB/c mice. The settings on record: 30 mg/Kg, oral twice a day, after 8 weeks of treatment. An excerpt:
JAK2 mutant JAK2V617F gene vector MSCV-JAK2V617F-GFP (Chengdu Wandao Biotechnology Development Co., Ltd.) and BALB/c mice (Jiangsu Jicui Yaokang Biotechnology Co., Ltd.) were provided as donors. The mouse bone marrow cells were sampled and infected with JAK2V617F virus, and the infected cells were reinfused into BALB/c recipient mice irradiated by X-rays through tail vein. Then, the JAK2V617F-positive myelofibrosis mouse model was induced. […] The administration route was oral administration twice a day, and the mice in the blank control group and the model group took the same volume of normal saline orally. […] Therefore, modifications or improvements made without departing from the spirit of the present invention are within the scope of protection of the present invention.

T3 sequence (P23458 whole entry): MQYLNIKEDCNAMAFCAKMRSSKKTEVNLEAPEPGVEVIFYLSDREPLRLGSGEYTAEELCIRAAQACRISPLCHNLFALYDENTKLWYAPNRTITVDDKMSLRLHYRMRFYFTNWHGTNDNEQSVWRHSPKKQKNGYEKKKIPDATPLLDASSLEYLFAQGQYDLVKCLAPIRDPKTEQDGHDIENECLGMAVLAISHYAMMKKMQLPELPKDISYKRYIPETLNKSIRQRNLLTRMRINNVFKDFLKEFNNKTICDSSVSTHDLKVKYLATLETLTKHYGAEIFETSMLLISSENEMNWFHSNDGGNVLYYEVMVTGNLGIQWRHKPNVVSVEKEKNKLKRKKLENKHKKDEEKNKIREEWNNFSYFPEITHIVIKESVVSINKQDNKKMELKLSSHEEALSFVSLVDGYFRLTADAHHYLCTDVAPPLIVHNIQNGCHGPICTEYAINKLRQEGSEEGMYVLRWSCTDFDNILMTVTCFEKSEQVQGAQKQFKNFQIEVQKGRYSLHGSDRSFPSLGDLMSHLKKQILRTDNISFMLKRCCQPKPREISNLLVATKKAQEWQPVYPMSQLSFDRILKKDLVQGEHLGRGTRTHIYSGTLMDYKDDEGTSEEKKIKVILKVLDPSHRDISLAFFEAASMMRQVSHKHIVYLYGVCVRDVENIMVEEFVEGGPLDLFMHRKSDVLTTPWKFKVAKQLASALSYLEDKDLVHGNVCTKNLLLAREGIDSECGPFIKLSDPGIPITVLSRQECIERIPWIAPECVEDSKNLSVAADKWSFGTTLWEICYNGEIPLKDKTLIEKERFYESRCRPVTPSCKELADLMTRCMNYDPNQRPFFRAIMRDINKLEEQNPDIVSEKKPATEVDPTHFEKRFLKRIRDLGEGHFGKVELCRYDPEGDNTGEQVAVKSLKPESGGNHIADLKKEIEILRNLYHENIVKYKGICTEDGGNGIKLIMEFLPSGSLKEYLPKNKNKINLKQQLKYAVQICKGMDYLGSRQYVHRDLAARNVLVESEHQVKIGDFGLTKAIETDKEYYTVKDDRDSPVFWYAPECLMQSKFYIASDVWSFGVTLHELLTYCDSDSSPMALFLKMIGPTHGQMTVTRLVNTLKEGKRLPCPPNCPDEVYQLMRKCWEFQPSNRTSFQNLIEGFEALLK
T4 sequence (O60674 whole entry): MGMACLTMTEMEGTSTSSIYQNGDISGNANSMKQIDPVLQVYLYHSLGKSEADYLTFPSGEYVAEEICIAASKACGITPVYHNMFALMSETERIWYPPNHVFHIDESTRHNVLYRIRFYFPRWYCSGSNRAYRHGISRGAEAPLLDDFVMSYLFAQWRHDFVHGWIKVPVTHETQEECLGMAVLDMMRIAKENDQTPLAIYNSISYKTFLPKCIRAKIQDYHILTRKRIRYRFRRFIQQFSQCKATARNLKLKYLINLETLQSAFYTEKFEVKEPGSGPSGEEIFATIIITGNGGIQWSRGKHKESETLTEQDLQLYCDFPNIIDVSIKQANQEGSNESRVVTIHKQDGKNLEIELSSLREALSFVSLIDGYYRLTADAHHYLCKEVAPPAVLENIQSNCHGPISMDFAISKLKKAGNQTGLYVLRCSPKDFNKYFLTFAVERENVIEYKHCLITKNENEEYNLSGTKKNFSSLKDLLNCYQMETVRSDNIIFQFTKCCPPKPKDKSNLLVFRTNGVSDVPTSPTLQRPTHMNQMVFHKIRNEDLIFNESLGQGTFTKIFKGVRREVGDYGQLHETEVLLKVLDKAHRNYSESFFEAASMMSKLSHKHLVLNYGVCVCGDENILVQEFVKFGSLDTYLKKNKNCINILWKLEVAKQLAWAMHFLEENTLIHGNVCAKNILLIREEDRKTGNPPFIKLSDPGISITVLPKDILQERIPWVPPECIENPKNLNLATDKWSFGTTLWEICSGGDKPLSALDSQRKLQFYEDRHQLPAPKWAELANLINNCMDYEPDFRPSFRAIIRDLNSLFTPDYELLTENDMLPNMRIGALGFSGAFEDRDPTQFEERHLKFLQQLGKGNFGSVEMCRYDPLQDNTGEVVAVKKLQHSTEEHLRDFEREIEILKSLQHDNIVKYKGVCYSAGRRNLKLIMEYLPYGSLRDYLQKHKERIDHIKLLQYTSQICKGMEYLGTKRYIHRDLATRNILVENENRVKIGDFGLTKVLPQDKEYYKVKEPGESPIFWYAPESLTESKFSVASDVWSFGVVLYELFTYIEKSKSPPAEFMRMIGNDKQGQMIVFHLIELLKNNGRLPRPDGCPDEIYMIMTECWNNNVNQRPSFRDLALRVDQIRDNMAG

Consider `Cc1cnc(Nc2ccc(N3CCC(N(C)CC4CC4)CC3)c(F)c2)nc1-c1cnn(C(C)C)c1` [CLJ-52, 5-methyl-N-(3-fluoro-4-(4-N-cyclopropanemethyl-4-N-methylaminopiperidine-1-yl)phenyl)-4-(1-isopropyl-1H-pyrazole-4-yl) pyrimidine-2-amine], for which the IC50 was 0.009 µM on FLT3; 0.023 µM against JAK3; 0.047 µM on JAK1; 0.01 to 0.1 µM in assay [1]; 0.001 µM against JAK2; 0.001 to 0.01 µM in [2]. Moreover, in the assay with SET-2 cells (JAK2 V617F), the IC50 was in the range of 0.1 to 1 µM. For the same compound, the inhibition at 0.5 µM on FLT3 was 102%. Besides, the “Kinase activity @ 500 nM (%) JAK2” value at JAK2 is reported as 106%.

For `Cc1cnc(Nc2ccc(N3CCC(N(C)CCO)CC3)c(F)c2)nc1-c1cn(C(C)C)nc1S(C)(=O)=O` [CLJ-91, 5-methyl-N-(3-fluoro-4-(4-N-hydroxyethyl-4-N-methylaminopiperidine-1-yl)phenyl)-4-(1-isopropyl-3-methylsulfonyl-1H-pyrazole-4-yl) pyrimidine-2-amine], the IC50 is 0.011 µM against FLT3; 0.103 µM against JAK3; 0.121 µM against JAK1; 0.01 to 0.1 µM in [1]; 0.003 µM against JAK2; 0.01 to 0.1 µM in assay [2]. For the same compound, the IC50 in the assay on SET-2 cells (JAK2 V617F) was in the range of 0.1 to 1 µM. In addition, the inhibition at 0.5 µM at FLT3 was determined as 97%. For the same compound, at JAK2, the “Kinase activity @ 500 nM (%) JAK2” value was determined as 100%.

In the case of `Cc1cnc(Nc2ccc(NS(=O)(=O)c3ccc(C(F)(F)F)cc3)c(F)c2)nc1-c1cnn(C(C)C)c1` [CLJ-94, N-(2-fluoro-4-((4-(1-isopropyl-1H-pyrazole-4-yl)-5-methylpyrimidine-2-yl)amino)phenyl)-4-(trifluoromethyl) benzenesulfonamide], the IC50 against FLT3 was 0.015 µM; against JAK3 it was 0.039 µM; against JAK1, 0.076 µM; in [1] it was 0.01 to 0.1 µM; at JAK2 it was 0.002 µM; in [2], 0.01 to 0.1 µM. In the assay on SET-2 cells (JAK2 V617F), the IC50 lay within 0.1 to 1 µM. The inhibition at 0.5 µM at FLT3 was 94%. In addition, at JAK2, the “Kinase activity @ 500 nM (%) JAK2” value stood at 99%.

In the case of `Cc1cnc(Nc2ccc(OCCN3CCCC3)cc2)nc1Nc1cccc(S(=O)(=O)NC(C)(C)C)c1` [Fedratinib, reference compound], in [3], the “inhibition of spleen growth” value turned out to be 40.23%. Besides, the “inhibition of growth rate of spleen” value with JAK2V617F stood at 29.46%.
